Test results: the CheMixHub ionic liquid set

Experiment: xn = mol fraction of the nth substance listed

[Cl-].[Cl-].[Co+2] + CCCCCCCC[N+](CCCCCCCC)(CCCCCCCC)CCCCCCCC.[Br-] + CCCCCCCC(=O)O
296.1 K, 101.3 kPa
Settings	viscosity [mPa·s]
x2 = 0.2857, x1 = 0.1429	2615
x2 = 0.4, x1 = 0.2	5700
x2 = 0.4286, x1 = 0.1429	7600

O=C1CCCO1 + CCCC[n+]1ccn(C)c1.O=S(=O)([N-]S(=O)(=O)C(F)(F)F)C(F)(F)F
100 kPa
Settings	electrical conductivity [S/m]	viscosity [mPa·s]
293.15 K, x1 = 0.2992	0.457	29.86
293.15 K, x1 = 0.8496	1.39	–
293.15 K, x2 = 0.0151	0.411	–
298.15 K, x1 = 0.5021	0.744	14.84
303.15 K, x1 = 0.2992	0.642	20.99
308.15 K, x1 = 0.5979	1.27	8.18
308.15 K, x1 = 0.7999	1.81	4.12
308.15 K, x1 = 0.8496	1.85	–
308.15 K, x1 = 1	0.001	1.52
313.15 K, x1 = 0.1984	0.753	18.48
313.15 K, x1 = 0.5979	1.45	7.26
313.15 K, x1 = 0.95	1.42	–
313.15 K, x1 = 1	0.001	1.42
313.15 K, x2 = 0.0151	0.542	–
318.15 K, x1 = 0.7999	2.15	3.44
318.15 K, x1 = 0.8496	2.17	–
318.15 K, x1 = 0.8995	2.02	2.35
318.15 K, x1 = 1	0.001	1.35
323.15 K, x1 = 0.7999	2.37	3.11
323.15 K, x1 = 1	0.002	1.3

CCCCCCCCCCCCCCCC[n+]1ccccc1.O=C([O-])c1ccccc1O + CC(C)[C@H](N)C(=O)O + O
electrical conductivity [S/m], 101 kPa
Settings	293.15 K	298.15 K	303.15 K	308.15 K	313.15 K
x2 = 0.0009002, x1 = 3.6e-07	0.000683	0.000771	0.000864	0.000967	0.00108
x2 = 0.0009002, x1 = 7.2e-07	0.000869	0.000983	0.0011	0.00123	0.00136
x2 = 0.0009002, x1 = 1.27e-06	0.00105	0.00118	0.00133	0.00148	0.00164
x2 = 0.0009002, x1 = 1.63e-06	0.00122	0.00138	0.00155	0.00173	0.00192
x2 = 0.0009002, x1 = 1.99e-06	0.00138	0.00156	0.00175	0.00194	0.00215
x2 = 0.0009002, x1 = 2.35e-06	0.00152	0.00174	0.00196	0.00219	0.00243
x2 = 0.0009002, x1 = 2.9e-06	0.00168	0.00193	0.00219	0.00247	0.00274
x2 = 0.0009002, x1 = 3.44e-06	0.00182	0.00207	0.00235	0.00266	0.003
x2 = 0.0009002, x1 = 3.98e-06	0.00195	0.00223	0.00254	0.00287	0.00322
x2 = 0.0009002, x1 = 4.53e-06	0.00208	0.00236	0.00269	0.00303	0.00342
x2 = 0.0009002, x1 = 4.89e-06	–	–	–	0.0032	0.00359
x2 = 0.0009002, x1 = 5.07e-06	0.00218	0.00249	0.00283	–	–
x2 = 0.0009002, x1 = 5.43e-06	0.00228	0.0026	0.00295	0.00334	0.00376
x2 = 0.0009002, x1 = 5.79e-06	0.00238	0.00271	0.00307	0.00346	0.00389
x2 = 0.0009002, x1 = 6.16e-06	0.00246	0.0028	0.00317	0.00358	0.00403
x2 = 0.001799, x1 = 1.8e-07	0.00108	0.00122	0.00138	0.00154	0.00173
x2 = 0.001799, x1 = 3.6e-07	0.00119	0.00135	0.00152	0.00169	0.00189
x2 = 0.001799, x1 = 7.3e-07	0.00132	0.00149	0.00168	0.00188	0.00209
x2 = 0.001799, x1 = 1.09e-06	0.00145	0.00164	0.00185	0.00206	0.0023
x2 = 0.001799, x1 = 1.27e-06	0.00157	0.00178	0.00199	0.00222	0.00248
x2 = 0.001799, x1 = 1.46e-06	0.00171	0.00193	0.00216	0.00242	0.00269
x2 = 0.001799, x1 = 1.64e-06	0.00177	0.002	0.00225	0.00252	0.0028
x2 = 0.001799, x1 = 1.82e-06	0.00183	0.00207	0.00233	0.0026	0.0029
x2 = 0.001799, x1 = 2e-06	0.00188	0.00213	0.0024	0.00268	0.00299
x2 = 0.001799, x1 = 2.18e-06	0.00196	0.00224	0.00252	0.00282	0.00314
x2 = 0.001799, x1 = 2.37e-06	–	0.00234	0.00267	0.00298	0.00332
x2 = 0.001799, x1 = 2.55e-06	0.00205	–	–	–	–
x2 = 0.001799, x1 = 2.73e-06	0.00216	0.00248	–	0.00317	0.00355
x2 = 0.001799, x1 = 3.09e-06	0.00226	0.00258	0.00292	0.0033	0.0037
x2 = 0.001799, x1 = 3.46e-06	0.00234	0.00268	0.00304	0.00342	0.00384

CCCC[n+]1ccn(C)c1.COP(=O)([O-])OC + CC(=O)[O-].CCCC[NH2+]CCO
101 kPa, x2 = 0
Settings	viscosity [mPa·s]
278.15 K	3503
283.15 K	2142
288.15 K	1361
293.15 K	895
298.15 K	609
303.15 K	426
308.15 K	305.8
313.15 K	224.9
318.15 K	168.9
323.15 K	129.4
328.15 K	100.9
333.15 K	79.9
338.15 K	64.25
343.15 K	52.35
348.15 K	43.18
353.15 K	36.02
358.15 K	30.38
363.15 K	25.86
368.15 K	22.22
373.15 K	19.25

CCCCO + CCCC[n+]1ccn(C)c1.O=S(=O)([N-]S(=O)(=O)C(F)(F)F)C(F)(F)F
Settings	viscosity [mPa·s]
298 K, 100 kPa, x2 = 0	2.578

CCCCCCCCCCCCCC[P+](CCCCCC)(CCCCCC)CCCCCC.O=S(=O)([N-]S(=O)(=O)C(F)(F)F)C(F)(F)F + O
Settings	viscosity [mPa·s]
328.15 K, 100 kPa, x2 = 0.088	65.75

CCCCCCCCCCCCCC[P+](CCCCCC)(CCCCCC)CCCCCC.O=S(=O)([N-]S(=O)(=O)C(F)(F)F)C(F)(F)F + CCCCCC[n+]1ccn(C)c1.O=S(=O)([N-]S(=O)(=O)C(F)(F)F)C(F)(F)F
100 kPa
Settings	viscosity [mPa·s]
278.15 K, x2 = 0.404	870
283.15 K, x2 = 0.097	770

CCCC[n+]1ccn(C)c1.COP(=O)([O-])OC + CC(=O)O.CC(=O)[O-].CC[NH+](CC)CCO
101 kPa, x2 = 0
Settings	viscosity [mPa·s]
283.15 K	2142
298.15 K	609
353.15 K	36.02
358.15 K	30.38
